Legend:
Assay type in all cases: physicochemical
[1] = Solubility of BC-3781 acetate in various media
Description: The solubility of BC-3781 acetate in various media is as follows: […]

pKa value measured = test: pKa value measured
[2] = Stability at physiological pH; details: pH 6.8 to 7.4
Description: Reported local tolerability issues are often linked to insufficient solubity of the compound at physiological pH which, however, is not the case for BC-3781.

solubility ([1]; aqueous buffer, pH 7.4 (300 mM phosphate buffer)) [mg/mL]	solubility ([1]; water) [mg/mL]	pKa (pKa value measured)	Stability at physiological pH [2]	SMILES
≥ 100	≥ 100			C=C[C@]1(C)C[C@@H](OC(=O)CS[C@@H]2CC[C@@H](N)C[C@H]2O)[C@]2(C)[C@H](C)CC[C@]3(CCC(=O)[C@H]32)[C@@H](C)[C@@H]1O [BC-3781 acetate, 14-O-{[(1R, 2R, 4R)-4-amino-2-hydroxy-cyclohexylsulfanyl]-acetyl}-mutilin]
		9.41	excellent stability	C=C[C@]1(C)C[C@@H](OC(=O)CS[C@@H]2CC[C@@H](N)C[C@H]2O)[C@]2(C)[C@H](C)CC[C@]3(CCC(=O)[C@H]32)[C@@H](C)[C@@H]1O [BC-3781, 14-O-{[(1R, 2R, 4R)-4-amino-2-hydroxy-cyclohexylsulfanyl]-acetyl}-mutilin]
